In PMC4623978, “Modulation of Closed−State Inactivation in Kv2.1/Kv6.4 Heterotetramers as Mechanism for 4−AP Induced Potentiation” (PLoS ONE, 2015):

Experiments:
[1] = target: T1, Kv2.1/Kv6.4 heterotetramer (Homo sapiens, UniProt Q14721+Q8TDN1); test: whole-cell patch clamp, Hill fit of current at +[…] mV; type: cell-based
T1 construct: gene KCNB1; co-transfected in mouse Ltk- cells, KvS:Kv2.1 10:1 cDNA; formerly named Kv6.3
T1 sequence (Q14721 1-858): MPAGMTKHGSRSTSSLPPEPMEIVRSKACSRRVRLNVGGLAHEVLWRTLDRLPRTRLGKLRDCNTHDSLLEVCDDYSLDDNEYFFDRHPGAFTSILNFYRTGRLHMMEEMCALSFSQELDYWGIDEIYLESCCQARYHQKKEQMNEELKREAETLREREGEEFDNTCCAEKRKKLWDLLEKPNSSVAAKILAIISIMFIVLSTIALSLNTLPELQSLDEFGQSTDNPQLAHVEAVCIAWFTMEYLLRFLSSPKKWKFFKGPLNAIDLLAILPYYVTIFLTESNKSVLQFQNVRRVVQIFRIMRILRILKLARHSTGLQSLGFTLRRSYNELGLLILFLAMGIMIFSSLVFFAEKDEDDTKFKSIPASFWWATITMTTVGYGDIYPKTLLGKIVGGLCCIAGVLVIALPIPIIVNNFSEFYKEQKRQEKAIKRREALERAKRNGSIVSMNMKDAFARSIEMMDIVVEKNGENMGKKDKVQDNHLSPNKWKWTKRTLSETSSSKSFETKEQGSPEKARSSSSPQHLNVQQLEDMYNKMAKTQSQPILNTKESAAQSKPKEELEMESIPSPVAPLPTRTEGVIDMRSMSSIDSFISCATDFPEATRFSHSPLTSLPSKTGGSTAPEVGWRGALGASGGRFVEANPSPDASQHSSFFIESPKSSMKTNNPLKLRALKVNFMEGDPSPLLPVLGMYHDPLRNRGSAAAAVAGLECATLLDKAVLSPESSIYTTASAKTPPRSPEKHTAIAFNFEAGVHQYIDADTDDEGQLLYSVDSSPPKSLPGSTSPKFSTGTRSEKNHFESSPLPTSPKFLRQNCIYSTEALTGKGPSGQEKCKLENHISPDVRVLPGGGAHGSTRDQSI
T1 sequence (Q8TDN1 1-519): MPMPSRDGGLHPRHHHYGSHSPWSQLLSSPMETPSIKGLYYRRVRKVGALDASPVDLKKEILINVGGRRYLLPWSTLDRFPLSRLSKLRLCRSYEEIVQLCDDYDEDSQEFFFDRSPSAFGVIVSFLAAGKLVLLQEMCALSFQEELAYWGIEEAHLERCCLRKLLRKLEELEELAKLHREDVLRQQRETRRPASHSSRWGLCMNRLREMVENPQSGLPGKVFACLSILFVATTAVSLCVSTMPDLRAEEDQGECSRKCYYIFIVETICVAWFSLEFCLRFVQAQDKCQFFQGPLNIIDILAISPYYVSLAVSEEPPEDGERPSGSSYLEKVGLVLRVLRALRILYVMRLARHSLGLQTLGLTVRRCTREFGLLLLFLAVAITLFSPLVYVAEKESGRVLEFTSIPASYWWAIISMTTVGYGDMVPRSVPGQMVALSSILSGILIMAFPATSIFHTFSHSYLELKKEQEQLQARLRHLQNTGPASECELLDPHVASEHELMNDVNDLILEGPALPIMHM

Kv2.1 homotetramer = target: T2, Kv2.1 homotetramer (Homo sapiens, UniProt Q14721); test: as above; type: cell-based
T2 construct: gene KCNB1; full-length in eGFP-N1 vector, transiently expressed in mouse Ltk- cells; homotetramer
T2 sequence (Q14721 1-858): T1 sequence (Q14721 1-858)

[2] = target: T3, Kv2.1/Kv5.1 heterotetramer (Homo sapiens, UniProt Q14721+Q9H3M0); test: whole-cell patch clamp, current block; type: cell-based; conditions: pH 7.35 outside, 20-23 °C
T3 construct: gene KCNB1; co-transfected in mouse Ltk- cells, KvS:Kv2.1 10:1 cDNA
T3 sequence (Q14721 1-858): T1 sequence (Q14721 1-858)
T3 sequence (Q9H3M0 1-494): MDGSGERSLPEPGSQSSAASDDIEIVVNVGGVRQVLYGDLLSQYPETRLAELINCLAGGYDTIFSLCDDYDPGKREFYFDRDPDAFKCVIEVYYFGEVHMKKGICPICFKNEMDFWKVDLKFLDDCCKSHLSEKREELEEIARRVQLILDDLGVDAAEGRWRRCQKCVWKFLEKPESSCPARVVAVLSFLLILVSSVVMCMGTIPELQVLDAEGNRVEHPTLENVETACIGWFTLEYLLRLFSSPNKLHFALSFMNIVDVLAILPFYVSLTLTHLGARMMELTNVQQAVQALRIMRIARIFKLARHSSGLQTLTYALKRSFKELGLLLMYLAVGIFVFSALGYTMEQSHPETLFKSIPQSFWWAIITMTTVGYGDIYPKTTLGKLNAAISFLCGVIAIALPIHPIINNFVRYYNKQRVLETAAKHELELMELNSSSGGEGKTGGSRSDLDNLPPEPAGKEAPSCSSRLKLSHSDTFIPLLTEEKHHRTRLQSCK

Kv2.1/Kv6.4_S6c_Kv9.3 = system: T4, Kv2.1/Kv6.4_S6c_Kv9.3; test: whole-cell patch clamp, current block; type: cell-based, Homo sapiens (Kv2.1, Kv6.4); Mus musculus (Kv9.3 S6c); conditions: pH 7.35 outside, 20-23 °C
T4 construct: gene KCNB1

IC50 [1] | IC50 (Kv2.1 homotetramer) | SMILES | % inhibition at 18 mM [2] | % inhibition at 18 mM (Kv2.1/Kv6.4_S6c_Kv9.3)
2000 ± 100 nM | 7.4 ± 0.8 µM | O=C(NCC1CCCCN1)c1cc(OCC(F)(F)F)ccc1OCC(F)(F)F (stereo not drawn) [flecainide] | – | –
– | – | Nc1ccncc1 [4-aminopyridine] | 10 ± 2% | 12 ± 3%
3000 ± 100 nM | 7.2 ± 0.8 µM | C=C[C@H]1C[N@@]2CC[C@H]1C[C@@H]2[C@@H](O)c1ccnc2ccc(OC)cc12 [quinidine] | – | –
